Measured values: US9457095B2, “Pharmaceutical compositions providing enhanced drug concentrations” (Bend Research, Inc., priority 1999, dated 2016)
In brackets after ≈: the same amount, converted by molar mass. Counter-ions that a name gives are not always drawn. One block for each compound: values may come before it.

Legend:
Format in all cases: physicochemical
[1] = solubility of Drug 6 salt forms; settings: Drug 6 salts
[2] = microcentrifuge dissolution, sertraline lactate (Drug 2) with polymer
Method: For these tests, 1.8 mg sertraline lactate was added to 0.9 mL HPLC water in each of six microcentrifuge tubes. For Control 4, 0.9 mL 2×PBS (PBS solution with 2 times the standard buffer salt concentration), adjusted to pH 8.0, was added to Tubes 1 and 2. For Example 10, 0.9 mL 2×PBS (pH 8.0) containing 3.6 mg of HPMCAS-MF was added to Tubes 3 and 4. For Example 11, 0.9 mL 2×PBS (pH 8.0) containing 3.6 mg of CAT was added to Tubes 5 and 6.
Dissolution performance was measured at 37° C. using the microcentrifuge method described in Example 1. Samples were taken after 4, 10, 20, 40, 90, and 180 minutes as described in Example 1. Samples were diluted in 35% H2O/65% ACN (vol./vol.), and analyzed by HPLC. The mobile phase was 35 vol. % 0.025 M triethylamine with 0.05M acetic acid in HPLC water in ACN. The analytical column used was a Phenomenex ODS 20, and the drug concentration was determined using diode array detection at 230 nm.

[3] = microcentrifuge dissolution, ziprasidone mesylate (Drug 3) with polymer; settings: for [Drug 3]: PBS, 37° C.
Method: Ziprasidone mesylate (Drug 3) is the soluble salt form of the antipsychotic drug ziprasidone. For these tests, 0.5 mg drug was added to each of 8 microcentrifuge tubes. For Control 5, no concentration-enhancing polymer was added to Tubes 1 and 2. For Example 12, 1.0 mg of CAT was added to Tubes 3 and 4. For Example 13, 1.0 mg of CAP (NF grade from Eastman Fine Chemical of Kingsport, Tenn.) was added to Tubes 5 and 6. For Example 14, 1.0 mg HPMCP (NF grade from Eastman Chemical Company) was added to Tubes 7 and 8.
Dissolution performance was measured at 37° C. using the microcentrifuge method described in Example 1. For each test, 0.616 mg of Drug 3 was added to the microcentrifuge tube. At time 0, 1.8 mL PBS was added to each of the tubes. Drug concentration was measured using HPLC, with a mobile phase of 60 vol. % 0.02 M KH2PO4, pH 3.0 in ACN, and diode array detection at 254 nm.

[4] = solubility of sertraline forms; settings: for solubility: sertraline forms, pH 3, expressed as the free base
[5] = microcentrifuge dissolution, amorphous Drug 1 with varying ratios of HPMCAS-MF; settings: 15 mg amorphous Drug 1 in 1.5 mL PBS, 37° C.
Method: Amorphous Drug 1 (15 mg) was added to microcentrifuge tubes containing 1.5 mL of PBS solution and varying concentrations of HPMCAS-MF. Dissolution performance was measured at 37° C. using the microcentrifuge method described in Example 1. Drug concentration was measured at 1.5 hours and at 20 hours for each polymer concentration.

[6] = Cmax of Drug 1 forms in MFD solution; settings: pH 6.5 MFD solution
[7] = solubility of Drug 4 polymorphs in water; settings: Drug 4 mesylate polymorph

Compound: 4-[3-[4-(2-methylimidazol-1-yl) phenylthio] phenyl]-3,4,5,6-tetrahydro-2H-pyran-4-carboxamide hemifumarate [Drug 6 hydrochloride salt]
solubility ([1]; pH 4): 0.37 mgA/mL | solubility ([1]; pH 7): 0.0009 mgA/mL

Compound: 4-[3-[4-(2-methylimidazol-1-yl) phenylthio] phenyl]-3,4,5,6-tetrahydro-2H-pyran-4-carboxamide hemifumarate [Drug 6]
solubility ([1]; pH 4, listed as Drug 6 mesylate salt): 3.7 mgA/mL | solubility ([1]; pH 7, listed as Drug 6 mesylate salt): 0.0042 mgA/mL

Compound: CN[C@H]1CC[C@@H](c2ccc(Cl)c(Cl)c2)c2ccccc21 [Control 4]
[Drug 2] ([2]; 10 mins): 89 µg/mL | [Drug 2] ([2]; 20 mins): 72 µg/mL | [Drug 2] ([2]; 40 mins): 67 µg/mL | [Drug 2] ([2]; 90 mins): 63 µg/mL | [Drug 2] ([2]; 180 mins): 60 µg/mL | AUC180 ([2]; Drug 2 dissolution): 11,700 min * μg/mL | Cmax ([2]; Drug 2 dissolution): 101 µg/mL | [Drug 2] ([2]; PBS (2x PBS pH 8.0 added), 37° C., 4 mins): 101 µg/mL

Compound: CN[C@H]1CC[C@@H](c2ccc(Cl)c(Cl)c2)c2ccccc21 [Drug 2, sertraline lactate]
solubility [4]: 256000 µg/mL

Compound: CN[C@H]1CC[C@@H](c2ccc(Cl)c(Cl)c2)c2ccccc21 [Drug 5, sertraline HCl]
solubility ([4]; aqueous solution, aqueous buffer, read-out: solubility): 3000 µg/mL | solubility thermodynamic ([4]; distilled water, aqueous buffer, thermodynamic from solid, sertraline hydrochloride with or without citric acid, pH 3, read-out: equilibrium solubility): 3000 µg/mL

Other lines, results leading:

AUC180 ([3]; Drug 3 dissolution in PBS): 1000 µg·min/mL | Cmax ([3]; Drug 3 dissolution in PBS): 11 µg/mL | [Drug 3] ([3]; 10 mins): 3 µg/mL | [Drug 3] ([3]; 20 mins): 11 µg/mL | [Drug 3] ([3]; 40 mins): 6 µg/mL | [Drug 3] ([3]; 90 mins): 7 µg/mL | [Drug 3] ([3]; 180 mins): 1 µg/mL
Compound: CS(=O)(=O)O.O=C1Cc2cc(CCN3CCN(c4nsc5ccccc45)CC3)c(Cl)cc2N1 [Control 5]

[Drug] 1.5 hr. [5]: 224 µg/mL | Cmax ([6]; listed as amorphous form): 270 µg/mL
Compound: O=C(N[C@@H](Cc1ccccc1)[C@@H](O)C(=O)N1C[C@@H](O)[C@@H](O)C1)c1cc2cc(Cl)ccc2[nH]1 [amorphous Drug 1, 5-chloro-1H-indole-2-carboxylic acid [(1 S)-benzyl-3-((3R, 4S)-dihydroxypyrroldin-1-yl-)-(2R)-hydroxy-3-oxypropyl] amide]

Cmax ([6]; listed as crystalline form): 160 µg/mL
Compound: O=C(N[C@@H](Cc1ccccc1)[C@@H](O)C(=O)N1C[C@@H](O)[C@@H](O)C1)c1cc2cc(Cl)ccc2[nH]1 [crystalline Drug 1, 5-chloro-1H-indole-2-carboxylic acid [(1 S)-benzyl-3-((3R, 4S)-dihydroxypyrroldin-1-yl-)-(2R)-hydroxy-3-oxypropyl] amide]

solubility ([7]; read-out: solubility in water): 102 µg/mL (≈ 259 µM)
Compound: C#Cc1cccc(Nc2ncnc3cc(OCCOC)c(OCCOC)cc23)c1 [“A” form, [6,7-Bis(2-methoxy-ethoxy)-quinazolin-4-yl]-(3-ethynyl-phenyl)amine]

solubility ([7]; read-out: solubility): 28 µg/mL (≈ 71.2 µM)
Compound: C#Cc1cccc(Nc2ncnc3cc(OCCOC)c(OCCOC)cc23)c1 [“C” form, [6,7-Bis(2-methoxy-ethoxy)-quinazolin-4-yl]-(3-ethynyl-phenyl)amine]
